Calls of active or inactive are those of the source.
Tests used:
[1] = blockers of HIV-1 envelope-mediated cell-cell fusion – cherry-pick, dose response (AID 652057); type: functional, cell-based
[2] = off-target signal loss in HeLa-CEM21 co-culture – HeLa F-luc CTL cells, cherry-picked, counter-screen for HIV-1 Env fusion inhibitor project, dose response (AID 652040); type: functional, cell-based;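 note: potency for signal decrease marking cytotoxic or nonspecific inhibition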
[3] = blockers of HIV-1 ZM109 envelope-driven cell-cell fusion – HeLa effector, CEM target cells, luciferase, cherry-pick, dose response (AID 652058); type: functional, cell-based;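 note: luciferase signal from HIV-1 Env mediated cell-cell fusion of effector and target cells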
[4] = system: P388/ADR; experiment: cells; type: functional; details: Mus musculus
[5] = system: SN12K1; experiment: cells; type: functional; details: Homo sapiens
[6] = system: P388; experiment: cells; type: functional; details: Mus musculus
[7] = molecular target: FAD-linked sulfhydryl oxidase ALR (Homo sapiens, UniProt P55789); experiment: ALR-catalysed DTT oxidation blockers – biochemical, H2O2 detection, luminescence, cherry-pick, dose response (AID 493248)
[8] = molecular target: T1, Ubiquitin-conjugating enzyme E2 N (Homo sapiens, UniProt P61088); type: functional;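 note: Dose-response confirmation in a TR-FRET assay detecting UBC13-driven polyubiquitin chain formation, inhibition measured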
T1 sequence (P61088 whole entry): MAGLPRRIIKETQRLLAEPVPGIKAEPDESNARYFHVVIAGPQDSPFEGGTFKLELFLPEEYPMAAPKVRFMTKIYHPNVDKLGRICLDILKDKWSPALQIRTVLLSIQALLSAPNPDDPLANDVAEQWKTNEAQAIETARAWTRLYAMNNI

[9] = microbe, parasite or virus in culture; type: functional; details: Mycobacterium tuberculosis
[10] = THP-1 cell cytotoxicity, dose response, cytotoxicity control for non-replicating M. tuberculosis project (AID 489025); type: functional
[11] = cells; type: functional
[12] = Vero E6 cell cytotoxicity, dose response, cytotoxicity control for non-replicating M. tuberculosis project, secondary assay (AID 492998); type: functional, VeroE6; details: Vero C1008
[13] = HIV-1 AD8 envelope cell-cell fusion blockers – cherry-pick, dose response (AID 652062); type: functional, cell-based;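 note: luciferase signal from cell-cell fusion driven by HIV-1 clade B AD8 Env; potency is for inhibitors of fusion seen as a drop in luminescence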
[14] = molecular target: T2, Histone-lysine N-methyltransferase NSD2 (Homo sapiens, UniProt O96028); type: biochemical
T2 sequence (O96028 whole entry): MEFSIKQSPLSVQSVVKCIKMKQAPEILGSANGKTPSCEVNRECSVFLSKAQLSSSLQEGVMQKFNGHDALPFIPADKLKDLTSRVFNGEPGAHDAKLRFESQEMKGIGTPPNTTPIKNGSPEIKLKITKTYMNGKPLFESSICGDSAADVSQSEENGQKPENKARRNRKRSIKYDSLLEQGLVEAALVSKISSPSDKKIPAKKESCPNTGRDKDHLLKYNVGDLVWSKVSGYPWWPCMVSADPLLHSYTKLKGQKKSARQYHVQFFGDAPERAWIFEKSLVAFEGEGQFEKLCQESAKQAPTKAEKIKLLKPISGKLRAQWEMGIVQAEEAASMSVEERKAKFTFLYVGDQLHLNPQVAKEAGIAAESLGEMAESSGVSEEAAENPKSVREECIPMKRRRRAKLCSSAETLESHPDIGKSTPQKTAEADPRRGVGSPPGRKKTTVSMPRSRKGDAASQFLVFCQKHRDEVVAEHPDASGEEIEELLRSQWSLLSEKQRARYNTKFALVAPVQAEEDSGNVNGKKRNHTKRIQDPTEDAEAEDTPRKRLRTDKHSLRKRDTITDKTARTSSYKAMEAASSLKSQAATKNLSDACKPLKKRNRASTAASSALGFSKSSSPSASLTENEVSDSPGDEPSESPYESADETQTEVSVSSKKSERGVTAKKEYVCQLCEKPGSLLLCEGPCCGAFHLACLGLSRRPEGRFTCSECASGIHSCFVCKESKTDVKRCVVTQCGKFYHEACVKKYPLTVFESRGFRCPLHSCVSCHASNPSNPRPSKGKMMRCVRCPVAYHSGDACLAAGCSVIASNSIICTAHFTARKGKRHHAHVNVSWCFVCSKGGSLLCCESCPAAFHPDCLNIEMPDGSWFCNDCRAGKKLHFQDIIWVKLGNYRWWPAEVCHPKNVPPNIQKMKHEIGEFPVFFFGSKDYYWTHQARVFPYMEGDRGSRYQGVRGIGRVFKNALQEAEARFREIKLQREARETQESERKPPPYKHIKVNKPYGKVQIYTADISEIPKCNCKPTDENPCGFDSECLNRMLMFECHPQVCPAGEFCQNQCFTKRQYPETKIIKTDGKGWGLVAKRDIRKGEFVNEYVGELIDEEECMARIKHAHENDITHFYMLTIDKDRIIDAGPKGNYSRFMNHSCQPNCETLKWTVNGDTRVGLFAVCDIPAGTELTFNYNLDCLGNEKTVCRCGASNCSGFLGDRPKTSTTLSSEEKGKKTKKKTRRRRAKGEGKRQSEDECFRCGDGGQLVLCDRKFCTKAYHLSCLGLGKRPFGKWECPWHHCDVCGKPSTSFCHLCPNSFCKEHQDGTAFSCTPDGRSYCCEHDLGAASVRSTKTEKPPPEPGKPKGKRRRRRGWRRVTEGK

[15] = molecular target: T3, Rac GTPase-activating protein 1 (Homo sapiens, UniProt Q9H0H5); experiment: blockers of MgcRacGAP-driven Rac1 GTP hydrolysis – biochemical, ADP Hunter fluorescence, primary and confirmatory, confirmation (AID 624330); type: functional
T3 sequence (Q9H0H5 whole entry): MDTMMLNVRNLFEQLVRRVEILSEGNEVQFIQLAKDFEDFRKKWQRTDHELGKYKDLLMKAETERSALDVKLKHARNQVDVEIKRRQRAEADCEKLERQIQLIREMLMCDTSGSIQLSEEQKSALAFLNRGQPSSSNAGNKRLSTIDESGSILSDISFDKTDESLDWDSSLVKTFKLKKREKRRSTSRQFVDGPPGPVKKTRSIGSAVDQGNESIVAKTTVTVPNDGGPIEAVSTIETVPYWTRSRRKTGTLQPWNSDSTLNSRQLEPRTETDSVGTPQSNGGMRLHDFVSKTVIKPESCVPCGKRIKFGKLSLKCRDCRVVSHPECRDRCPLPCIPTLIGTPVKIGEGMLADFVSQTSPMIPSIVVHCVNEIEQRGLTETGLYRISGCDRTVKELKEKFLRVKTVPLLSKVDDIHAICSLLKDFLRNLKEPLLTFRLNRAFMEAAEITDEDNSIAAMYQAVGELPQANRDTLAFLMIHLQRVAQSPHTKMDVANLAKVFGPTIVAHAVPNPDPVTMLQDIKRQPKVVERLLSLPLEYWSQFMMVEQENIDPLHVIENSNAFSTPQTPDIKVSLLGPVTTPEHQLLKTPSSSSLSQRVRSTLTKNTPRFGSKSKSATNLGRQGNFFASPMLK

[16] = molecular target: DNA dC->dU-editing enzyme APOBEC-3G (Homo sapiens, UniProt Q9HC16); experiment: Dose Response confirmation of small molecule APOBEC3G DNA Deaminase Inhibitors via a fluorescence-based single-stranded DNA deaminase assay. [Related pubchem assays (depositor defined):AID493012, AID493028]; type: functional
[17] = molecular target: DNA dC->dU-editing enzyme APOBEC-3A (Homo sapiens, UniProt P31941); experiment: A3A deaminase inhibition for selectivity – biochemical, dose response (AID 504722); type: functional
[18] = molecular target: Genome polyprotein (dengue virus type 2, UniProt P29990); experiment: flavivirus cap methylation enzyme inhibition – biochemical, confirmation dose response, primary screen (AID 588689); type: functional
[19] = molecular target: T4, High affinity choline transporter 1 (Homo sapiens, UniProt Q9GZV3); experiment: human choline transporter blockers, potency – cell-based, 5-point CRC, membrane potential dye, dose response (AID 504840); type: functional
T4 sequence (Q9GZV3 whole entry): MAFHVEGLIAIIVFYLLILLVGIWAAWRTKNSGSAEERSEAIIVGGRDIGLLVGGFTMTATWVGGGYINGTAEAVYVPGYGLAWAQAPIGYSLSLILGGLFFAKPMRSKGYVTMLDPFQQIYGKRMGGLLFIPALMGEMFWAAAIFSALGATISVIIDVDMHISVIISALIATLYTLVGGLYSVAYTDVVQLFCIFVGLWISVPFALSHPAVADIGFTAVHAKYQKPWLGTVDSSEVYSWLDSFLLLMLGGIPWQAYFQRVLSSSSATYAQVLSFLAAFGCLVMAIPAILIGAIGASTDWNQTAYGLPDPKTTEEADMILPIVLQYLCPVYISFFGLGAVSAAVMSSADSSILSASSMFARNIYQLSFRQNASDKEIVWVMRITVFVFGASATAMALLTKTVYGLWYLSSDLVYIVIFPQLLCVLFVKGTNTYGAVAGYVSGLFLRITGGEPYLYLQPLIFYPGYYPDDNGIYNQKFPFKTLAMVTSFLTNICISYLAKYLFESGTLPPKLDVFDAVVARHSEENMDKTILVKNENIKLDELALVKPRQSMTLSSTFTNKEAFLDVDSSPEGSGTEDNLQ

Chain of FAD-linked sulfhydryl oxidase ALR (P55789 whole entry): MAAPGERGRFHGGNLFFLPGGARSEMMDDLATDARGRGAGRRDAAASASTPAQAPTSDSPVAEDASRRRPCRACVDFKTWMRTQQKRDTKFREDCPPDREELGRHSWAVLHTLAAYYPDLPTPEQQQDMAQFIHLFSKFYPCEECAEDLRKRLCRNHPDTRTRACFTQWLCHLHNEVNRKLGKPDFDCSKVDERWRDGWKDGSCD
Chain of DNA dC->dU-editing enzyme APOBEC-3G (Q9HC16 whole entry): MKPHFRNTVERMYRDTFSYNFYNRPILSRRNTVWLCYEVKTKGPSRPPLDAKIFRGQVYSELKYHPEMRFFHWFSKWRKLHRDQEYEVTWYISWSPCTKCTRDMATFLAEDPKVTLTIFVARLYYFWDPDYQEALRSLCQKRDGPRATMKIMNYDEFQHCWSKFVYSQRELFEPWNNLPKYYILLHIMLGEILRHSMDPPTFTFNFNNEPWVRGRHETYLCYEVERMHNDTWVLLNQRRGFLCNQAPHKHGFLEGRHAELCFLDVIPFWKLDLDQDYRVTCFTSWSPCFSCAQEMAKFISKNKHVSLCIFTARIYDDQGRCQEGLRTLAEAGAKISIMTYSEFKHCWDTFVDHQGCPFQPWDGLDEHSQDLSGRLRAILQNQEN
Chain of DNA dC->dU-editing enzyme APOBEC-3A (P31941 whole entry): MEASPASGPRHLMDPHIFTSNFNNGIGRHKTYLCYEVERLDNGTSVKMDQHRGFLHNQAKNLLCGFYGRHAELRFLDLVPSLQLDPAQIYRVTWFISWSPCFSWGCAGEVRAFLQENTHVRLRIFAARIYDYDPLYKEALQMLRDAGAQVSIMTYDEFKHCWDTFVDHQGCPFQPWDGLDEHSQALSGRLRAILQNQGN
Chain of Genome polyprotein (P29990 2492-3391 limits assumed): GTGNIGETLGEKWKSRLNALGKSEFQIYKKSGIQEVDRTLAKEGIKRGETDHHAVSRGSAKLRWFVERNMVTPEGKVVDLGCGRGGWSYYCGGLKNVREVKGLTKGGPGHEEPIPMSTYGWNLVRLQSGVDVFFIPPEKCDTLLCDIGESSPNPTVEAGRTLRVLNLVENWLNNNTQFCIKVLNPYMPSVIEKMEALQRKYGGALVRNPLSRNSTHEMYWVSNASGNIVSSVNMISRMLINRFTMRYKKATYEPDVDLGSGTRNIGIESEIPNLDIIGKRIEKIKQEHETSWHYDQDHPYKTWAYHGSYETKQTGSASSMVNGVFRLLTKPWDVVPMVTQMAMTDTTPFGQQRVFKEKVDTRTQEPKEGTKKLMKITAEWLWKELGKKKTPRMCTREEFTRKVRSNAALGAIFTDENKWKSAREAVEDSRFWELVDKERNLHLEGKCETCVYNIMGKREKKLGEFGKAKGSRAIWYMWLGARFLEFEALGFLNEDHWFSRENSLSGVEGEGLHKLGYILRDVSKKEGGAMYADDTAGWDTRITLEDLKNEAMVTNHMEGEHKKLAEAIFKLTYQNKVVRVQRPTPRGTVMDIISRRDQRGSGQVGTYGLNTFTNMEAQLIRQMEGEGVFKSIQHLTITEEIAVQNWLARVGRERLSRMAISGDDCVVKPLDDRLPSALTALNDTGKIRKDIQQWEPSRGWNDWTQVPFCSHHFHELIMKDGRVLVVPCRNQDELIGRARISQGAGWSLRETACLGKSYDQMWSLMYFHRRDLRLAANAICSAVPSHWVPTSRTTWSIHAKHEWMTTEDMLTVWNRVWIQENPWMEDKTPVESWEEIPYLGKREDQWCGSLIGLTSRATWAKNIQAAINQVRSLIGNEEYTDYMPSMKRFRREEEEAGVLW

## CCN(CC)S(=O)(=O)c1ccc(NC2c3ccccc3C(=O)N2Cc2ccc3c(c2)OCO3)cc1 (stereo not drawn)
[1]
  AC50: 1.33 µM (active)
[2]
  AC50: 3.71 µM (active)
[3]
  AC50: 7.39 µM (active)

## O=NN(CCCl)C(=O)NC1CCC(=O)NC1=O (stereo not drawn)
[4]
  GI50: 23.4 µM (inactive)
[5]
  GI50: 107 µM (inactive)
[6]
  GI50: 17.8 µM (inactive)

## Clc1nnc(N2CCCCC2)c2ccccc12
[7]
  AC50: 17.1 µM (active)

## Cc1ccnc(NCc2c(O)ccc3ccccc23)c1
[8]
  IC50: > 20 µM (inactive)

## O=C(CSc1nc2ccsc2c(=O)n1Cc1ccccc1)NCC1CCCO1 (stereo not drawn)
[8]
  IC50: > 20 µM (inactive)

## COc1cccc(/C=C2\SC(N3CCCC(C)C3)=NC2=O)c1OC (stereo not drawn)
[7]
  AC50: 5.2 µM (active)

## CCCCCn1c(=O)c2ccccc2n2c(CCl)nnc12
[9]
  CC50: 11.7 µM (active)
[10]
  CC50: 19.2 µM (active)
[11]
  IC50: 0.67 µM (active)
[12]
  CC50: > 20 µM (active)

## CN(C)S(=O)(=O)c1ccc(N2CCCC2)c(C(=O)NCCc2ccc(F)cc2)c1
[13]
  AC50: 6.5 µM (active)
[1]
  AC50: 5.95 µM (active)
[2]
  AC50: 9.35 µM (active)
[3]
  AC50: 5.76 µM (active)

## COc1ccc(C)cc1NCc1ccc(OC)c(C)c1OC
[14]
  AC50: > 20 µM (inactive)
[15]
  IC50: 59.5 µM (active)

## O=C(NCC1CCCCC1)C1(CC2CC(c3ccc(Cl)cc3)=NO2)CCNCC1 (stereo not drawn)
[8]
  IC50: > 20 µM (inactive)

## CCn1c(CSc2nc3ccccc3[nH]2)n[nH]c1=S
[16]
  IC50: 5.44 µM (active)
[17]
  IC50: > 100 µM (inactive)

## Cc1nnc(S)n1/N=C/c1ccc(-c2ccccc2[N+](=O)[O-])o1
[16]
  IC50: 4.2 µM (active)
[17]
  IC50: > 100 µM (inactive)

## O=C(C(=O)N1CCOCC1)c1cn(Cc2ccccc2Cl)c2ccccc12
[8]
  IC50: > 20 µM (inactive)

## Cc1sc2ncnc(N3CCC(C(=O)Nc4cc(S(C)(=O)=O)ccc4Cl)CC3)c2c1C
[13]
  AC50: 12.3 µM (active)
[1]
  AC50: 8.97 µM (active)
[2]
  AC50: 30.5 µM (active)
[3]
  AC50: 3.3 µM (active)

## CC1(C)CC(=O)c2cnn(-c3nc4ccccc4[nH]3)c2C1
[7]
  AC50: 14.8 µM (active)

## COC1C(C)OC(OC2CC(C)(O)Cc3cc4c(c(O)c32)C(=O)c2c(O)cc3c(c2C4=O)OC2OC3(C)C(O)C(N(C)C)C2O)C(OC)C1(C)OC (stereo not drawn)
[4]
  GI50: 0.5 µM (active)
[5]
  GI50: 0.0168 µM (active)
[6]
  GI50: 0.0228 µM (active)

## CCOc1ccc(/C=C2\SC(=S)N(NS(=O)(=O)c3ccccc3)C2=O)cc1OC
[18]
  IC50: 71.2 µM (active)
[19]
  IC50: 5.37 µM (active)

## CC(=O)NCCCc1c[nH]c2ccc(Cl)cc12
[7]
  AC50: 13.5 µM (active)

## C[C@H]1CC[C@H](NC(=O)N(CCCl)N=O)CC1
[4]
  GI50: 9.73 µM (inactive)
[5]
  GI50: 26 µM (inactive)
[6]
  GI50: 9.53 µM (inactive)

## CN(C)CCCNc1nc2sc3c(c2c(=O)n1CCc1ccccc1)CCCCC3
[10]
  CC50: 19.5 µM (active)
[8]
  IC50: > 20 µM (inactive)
[11]
  IC50: 23.3 µM (active)
[12]
  CC50: 14.4 µM (active)

## COc1ccc(S(=O)(=O)N2CCCCC2)cc1NC(=O)Cc1ccsc1
[14]
  AC50: 17.1 µM (active)

## Nc1ccc(-c2nc3cc(N)ccc3s2)cc1
[7]
  AC50: 1.43 µM (active)

## COc1cc[n+](C)cc1
[4]
  GI50: > 100 µM (inactive)
[5]
  GI50: > 100 µM (inactive)
[6]
  GI50: > 100 µM (inactive)

## COC(=O)C1=C(C)N(Cc2ccc(Cl)cc2)C(=S)NC1c1ccc(OC)cc1 (stereo not drawn)
[13]
  AC50: 12.6 µM (active)
[1]
  AC50: 3.25 µM (active)
[2]
  AC50: 5.7 µM (active)
[3]
  AC50: 5.23 µM (active)

## COc1ccccc1CCNC(=O)c1ccc(OC)c(OC2CCN(C(C)C)CC2)c1
[19]
  IC50: 13.5 µM (active)

## S=P(N1CC1)(N1CC1)N1CC1 [THIOTEPA]
[4]
  GI50: 7.41 µM (inactive)
[5]
  GI50: > 89.1 µM (inactive)
[6]
  GI50: 6.93 µM (inactive)

## COc1ccc(-c2csc(Cc3nnc4n3CCCCC4)n2)cc1
[19]
  IC50: 9.12 µM (active)

## CCC[S+]([O-])c1nc(COC(=O)NC)c(COC(=O)NC)n1C (stereo not drawn)
[4]
  GI50: > 100 µM (inactive)
[5]
  GI50: > 100 µM (inactive)
[6]
  GI50: > 100 µM (inactive)

## COc1cc(-c2ccc(/N=N/c3c(S(=O)(=O)O)cc4cc(S(=O)(=O)O)cc(N)c4c3O)c(OC)c2)ccc1/N=N/c1c(S(=O)(=O)O)cc2cc(S(=O)(=O)O)cc(N)c2c1O
[5]
  GI50: > 100 µM (inactive)
[6]
  GI50: > 100 µM (inactive)

— ChEMBL document CHEMBL1201862, “PubChem BioAssay data set” (2004)
